Experimental data: patent US11186587B2, “Compound as ACC inhibitor and use thereof” (NANJING SANHOME PHARMACEUTICAL CO., LTD., priority 2017, dated 2021)

System: Col1A1 gene expression in TGF-β1-induced LX-2 cells
Test: Inhibition of human hepatic stellate cells LX-2 activation in vitro (Col1A1 gene expression, real-time PCR)
Assay type: cell-based
Conditions: TGFβ1 10 ng/mL, 24 h drug treatment, compound concentration of the tabulated value not stated (30, 10, 3 μM prepared)
Experimental: The compounds of the present disclosure prepared in the above examples and the control compound were respectively formulated into 60 mM with DMSO for use.
DMSO stock solution of the compounds of the examples of the present disclosure and the control compound were sequentially diluted with culture medium to 30 μM, 10 μM, and 3 μM. TGF-β1 was dissolved to […] with 10 mM citric acid buffer in the kit (PeproTech) according to the instructions, ready for use.
LX-2 cells were inoculated into a 6-well culture plate at a density of 2×10^5 cells/mL after cell passage. Each well contained 2 mL DMEM with 10% FBS. The cells were cultured at 37° C. in a 5% CO2 incubator, which was recorded as Day 1. After 24 h (Day 2), the cell confluence reached 70-80%, the old culture medium was discarded, and the serum-free DMEM was used to treat the cells as low serum starvation. The old culture medium was discarded at Day 3, and the culture medium or the culture medium containing different concentrations of the drug was added for continuing culture. There were control group (serum-free DMEM culture medium), TGFβ1 group, TGFβ1+ compound group. The TGFβ1 working concentration was 10 ng/mL. 24 h after the drug treatment (Day 4), the cell medium was discarded and the cells were washed once with precooled 1×PBS and then subjected to total RNA extraction.
2.3.1 Sample pretreatment: 1 mL of TransZOL Up reagent was added to each well of the 6-well plate, and the well plate was placed horizontally for a while to let the lysis buffer evenly spread on the cell surface and lyse the cells. The cells were blown with a pipette to make the cells completely detached. The lysate was transferred to a 2 mL RNase free centrifuge tube and repeatedly blown and sucked until no significant pieces in the lysate.
The extracted RNA was diluted to a concentration of 0.1 μg-0.5 μg (Total RNA ≤1 μg) based on the same mass. The total RNA in the reverse transcription system of each sample in the experiment was about 500 ng.
Two replicates were set for each sample, and the relative expression of the target gene was calculated by the program in the PCR machine.
The threshold of the Real Time PCR result was automatically set by the Real Time PCR detector system. The relative expression of the Col1A1 gene was calculated as follows. ΔCt (Col1A1 in drug treatment group)=Avg. Ct (Col1A1 in drug treatment group)−Avg. Ct (GAPDH in drug treatment group) ΔCt (Col1A1 in TGF group)=Avg. Ct (Col1A1 in TGF group)−Avg. Ct (GAPDH in TGF group) ΔCt (Col1A1 in Control group)=Avg. Ct (Col1A1 in Control group)−Avg. Ct (GAPDH in Control group) ΔΔCt=Average value of ΔCt (Col1A1 in TGF group/drug treatment group)−ΔCt (Col1A1 in Control group)
Formula for calculating the relative expression of Col1A1 gene: RQ=^2−ΔΔCt
Relative quantification results were obtained by automatically analysis of ABI 7500 real-time quantitative PCR machine.

Structure (SMILES): COc1ccccc1[C@H](Cn1c(=O)n(C(C)(C)C(=O)O)c(=O)c2c(C)c(-c3ncco3)sc21)OC1CCOCC1 [ND-630, 2-[1-[2-(2-methoxyphenyl)-2-(oxecyclo-4-yloxy)ethyl]-5-methyl-6-(1,3-oxazol-2-yl)-2,4-dioxo-1H,2H,3H,4H-thieno[2,3-d]pyrimidin-3-yl]-2-methylpropanoic acid, reference compound]
- Inhibition rate (%) of relative expression of the Col1A1 gene: 42.06%
